Laboratory results as given in patent US12697322B2, “Methods of treating cancer using androgen receptor antagonists” (Garvan Institute of Medical Research, priority 2019, dated 2026).
“Also recorded” adds a separate entry of the source.

Key:
Assay type in all cases: cell-based, human
[1] = test system: CD44^Hi cells isolated from HMLER and HCC38 cell lines; test: Cell proliferation assay (CyQuant); details: for CD44^Hi proliferation: CD44^Hi cells from HMLER and HCC38
Method: HMLER, HCC38 and MDA-MB-231 cells were plated in triplicate in 96-well plates at the densities outlined in Table 3. After 24 hours, cells were treated with various chemotherapeutic agents at the following doses: Doxorubicin (0 nM, 25 nM, 50 nM, 75 nM, 100 nM, 200 nM), Cisplatin (0 μg/ml, 0.1 μg/ml, 0.5 μg/ml, 1 μg/ml, 2 μg/ml, 5 μg/ml) or Docetaxel (0 nM, 1 nM, 5 nM, 10 nM, 25 nM, 50 nM); Androgen receptor agonists: Enobosarm (0 nM, 25 nM, 50 nM, 100 nM, 200 nM, 400 nM) or DHT (0 nM, 1 nM, 5 nM, 10 nM, 20 nM, 40 nM); or AR antagonist: Seviteronel (0 nM, 0.5 nM, 2 nM, 10 nM, 20 nM, 50 nM). Assays were harvested daily for five days by removing culture media and storing at −80′C. Cell proliferation was determined using CyQuant Cell Proliferation assay kit according to manufacturer's protocol (ThermoFisher Scientific) and fluorescence was measured at ~480 nm excitation and ~520 nm emission using a microplate reader.

[2] = test system: HMLER-CD44Hi and HCC38 CD44Hi cells; test: Tumoursphere formation assay; details: CD44^Hi cells, counted at Day 14
Method: Single cell suspensions were plated in ultra-low attachment 96-well plates (Corning #CLS3474, New York, USA). HMLE-CD44^Hi cells were plated at a density of 50 cells/well in 100 μl of BPA-free MEGM media (Lonza # CC-3150, Basal, Switzerland). HCC38-CD44^Hi cells were plated at a density of 100 cells/well in serum-free RPMI with 1% penicillin/streptomycin, 20 ng/ml EGF, 20 ng/ml FGFb, 4 μg/mL heparin, 1×B27 and 1% methyl cellulose (Sigma). Media was replenished every five days by adding 50 μL of the appropriate tumoursphere media to each well. Tumourspheres were counted at Day 14. Results are presented as tumoursphere formation efficiency (number of spheres per well divided by the number of cells seeded per well). At Day 14, mammospheres were collected using a 40 μm cell strainer, washed with PBS and dissociated using trypsin-EDTA solution, and stained with anti-CD44PECy7 and anti-CD104PE as per standard FACS staining protocol.

[3] = test system: HMLER and HCC38 CD44^Lo cells; test: Flow cytometry of chemotherapy-induced CD44^Lo to CD44^Hi plasticity
Excerpt: Cells were stained and fixed as with DHT treatment.
Using purified populations of CD44^Lo cells (with no CD44^Hi fraction) the effects of chemotherapy on cellular plasticity was investigated using flow cytometry.

AR full length (100 kDa) = test: AR siRNA knockdown, western blot; details: HCC38 CD44^Hi cells, 20 nM siRNA, 72 h post transfection
Method: Protein was extracted from cell lysates using RIPA lysis buffer (sc-24948) or specific lysis buffer for phospho-proteins detection (20 mM Tris-HC1 pH 7.6, 137 mM NaCl, 1% NP40, 0.5% Na-deoxycholate, 10 mM NaF, 20 mM β-glycerophosphate, 1 mM Na-orthovanadate and 1:200 complete protease inhibitors). 25-30 μg of proteins were run in a 4-12% Bis-tris gel (Invitrogen). Proteins were transferred to a PVDF membrane (BioRad). After blocking with 5% BSA (w/v) and 0.05% (v/v) Tween-20 in PBS, the membranes were incubated overnight with the indicated antibodies, washed with PBS 0.05% (v/v) Tween-20 and incubated with the corresponding horseradish peroxidase-conjugated secondary antibodies (Cell Signaling; Dil 1/5000, Table 3) for 30 min. Blots were developed using Western Lightning Plus ECL (PerkinElmer) and FusionFx7 Digital Imager, Band intensities were quantified using Fiji (Schindelin et al., 2012) and results were represented relative to controls.
siRNAs targeting exon 1 and 7 of AR full length were designed in-house (SEQ ID NOs: 6 and 7). HCC38 CD44^Hi cells (10^5/well) were seeded in M6 plate wells 24 hours prior to siRNA transfection. 20 nM of siRNA CT, siRNA AR Ex1 or AR Ex7 were delivered using lipofectamine 3000 (Thermofisher) as per manufacturer instructions.

Compound	CD44^Hi proliferation [1]	expression of AR full length (AR full length (100 kDa))	further results
C[C@]12CC[C@H](O)CC1=CC[C@@H]1[C@@H]2CC[C@]2(C)C(c3cccnc3)=CC[C@@H]12 [Abiraterone, (3p)-17-(pyridin-3-yl) androsta-5, 16-dien-3-ol]	decreased CD44Hi proliferation; also recorded: decrease CD44^Hi proliferation	–	tumoursphere formation (tumoursphere-forming efficiency) [2]: decrease
COc1cccc2c1C(=O)c1c(O)c3c(c(O)c1C2=O)C[C@@](O)(C(=O)CO)C[C@@H]3O[C@H]1C[C@H](N)[C@H](O)[C@H](C)O1 [Doxorubicin]	–	–	induction of CD44^Lo-to-CD44^Hi transition by chemotherapy ([3]; one dose of chemotherapy for 72 hours): induce CD44^Lo cells to transition to the CD44^Hi state
CNC(=O)c1ccc(N2C(=S)N(c3ccc(C#N)c(C(F)(F)F)c3)C(=O)C2(C)C)cc1F [Enzalutamide, 4-{3-[4-cyano-3-(trifluoromethyl)phenyl]-5,5-dimethyl-4-oxo-2-sulfanylideneimidazolidin-1-yl}-2-fluoro-iV-methylbenzamide]	decreased CD44Hi proliferation; also recorded: decrease CD44^Hi proliferation	–	treatment required to equal the effect of Seviteronel ([1]; CD44^Hi proliferation and tumoursphere formation): daily treatment of Enzalutamide was required to equal one dose of Seviteronel; blocking of chemotherapy-induced CD44^Lo-to-CD44^Hi transitions ([3]; with chemotherapy simultaneously for 72 hours, Seviteronel 10 μM): not as effective as Seviteronel
AR Ex7: in-house siRNA targeting AR exon 7, SEQ ID NO: 7 (GGAACUCGAUCGUAUCAUUUU; listed as RNA, chemistry not given here)	–	strong reduction	–
siRNA AR Ex1: in-house siRNA against AR full length, SEQ ID NO: 6 (GCUUCUGGGUGUCACUAUGUU; listed as RNA, chemistry not given here)	–	strong reduction	–
